Data as given in patent US7348334B2, “Monocyclic derivatives of aryl alkanoic acids and their use in medicine: process for their preparation and pharmaceutical compositions containing them” (Dr. Reddy's Laboratories Limited, priority 2001, dated 2008).
Where a name gives a salt, the structure may show the parent alone.

Legend:
hPPARγ1 = target: T1, hPPARγ1 (Homo sapiens, UniProt P37231); test: Determination of hPPARγ activity (GAL4 fusion luciferase reporter in HEK-293 cells); format: cell-based; settings: compound at 1 μM
T1 construct: expressed in transfected cells; host or cells: HEK-293
T1 sequence (P37231 238-503 limits assumed): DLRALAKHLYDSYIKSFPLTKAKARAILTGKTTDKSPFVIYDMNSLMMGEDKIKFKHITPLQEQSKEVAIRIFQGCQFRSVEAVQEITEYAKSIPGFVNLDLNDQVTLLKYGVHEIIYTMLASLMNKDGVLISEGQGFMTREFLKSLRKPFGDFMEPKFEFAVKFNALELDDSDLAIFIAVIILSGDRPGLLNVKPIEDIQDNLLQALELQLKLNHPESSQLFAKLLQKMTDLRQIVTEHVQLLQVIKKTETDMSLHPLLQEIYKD
Experimental: b) Determination of hPPARγ Activity:
Ligand binding domain of hPPARγ1 was fused to DNA binding domain of Yeast transcription factor GAL4 in eucaryotic expression vector. Using lipofectamine (Gibco BRL, USA) as transfecting reagent HEK-293 cells were transfected with this plasmid and a reporter plasmid harboring the luciferase gene driven by a GAL4 specific promoter. Compound was added at 1 μM concentration after 48 hrs of transfection and incubated overnight.

hPPARα = target: T2, hPPARα (Homo sapiens, UniProt Q07869); test: Determination of hPPARα activity (GAL4 fusion luciferase reporter in HEK-293 cells); format: cell-based; settings: compound at 50 μM
T2 construct: expressed in transfected cells; host or cells: HEK-293
T2 sequence (Q07869 239-466 limits assumed): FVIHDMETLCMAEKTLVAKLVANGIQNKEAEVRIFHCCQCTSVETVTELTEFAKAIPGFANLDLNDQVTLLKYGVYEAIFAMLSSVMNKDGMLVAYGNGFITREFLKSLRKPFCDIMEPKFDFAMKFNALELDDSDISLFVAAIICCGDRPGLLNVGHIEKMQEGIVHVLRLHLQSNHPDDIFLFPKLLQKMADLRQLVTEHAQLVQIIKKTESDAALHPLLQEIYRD
Experimental: a) Determination of hPPARα Activity:
Ligand binding domain of hPPARα was fused to DNA binding domain of Yeast transcription factor GAL4 in eucaryotic expression vector. Using superfect (Qiagen, Germany) as transfecting reagent HEK-293 cells were transfected with this plasmid and a reporter plasmid harboring the luciferase gene driven by a GAL4 specific promoter. Compound was added at different concentrations after 42 hrs of transfection and incubated overnight. Luciferase activity as a function of compound binding/activation capacity of PPARα was measured using Packard Luclite kit (Packard, USA) in Top Count (Ivan Sadowski, Brendan Bell, Peter Broag and Melvyn Hollis. Gene. 1992. 118: 137-141; Superfect Transfection Reagent Handbook. February 1997. Qiagen, Germany).

Swiss albino mice = test: Plasma triglyceride lowering activity in Swiss albino mice and guinea pigs; format: in vivo, mouse
Experimental: c) Plasma Triglyceride and Total Cholesterol Lowering Activity in Swiss Albino Mice and Guinea Pigs:
Male Swiss albino mice (SAM) and male Guinea pigs were obtained from NIN and housed in DRF animal house. All these animals were maintained under 12 hour light and dark cycle at 25±1° C. Animals were given standard laboratory chow (NIN, Hyderabad, India) and water, ad libitum. SAM of 20-25 g body weight range and Guinea pigs of 500-700 g body weight range were used (Oliver, P., Plancke, M. O., Marzin, D., Clavey, V., Sauzieres, J and Fruchart, J. C. Effects of fenofibrate, gemfibrozil and nicotinic acid on plasma lipoprotein levels in normal and hyperlipidemic mice. Atherosclerosis, 1988. 70: 107-114).
The test compounds were administered orally to Swiss albino mice at 0.3 to 30 mg/kg/day dose for 6 days. Control mice were treated with vehicle (0.25% Carboxymethylcellulose; dose 10 ml/kg). The test compounds were administered orally to Guinea pigs at 0.3 to 30 mg/kg/day dose for 6 days. Control animals were treated with vehicle (0.25% Carboxymethylcellulose; dose 5 ml/kg).
The blood samples were collected in fed state 1 hour after drug administration on 0 and 6 day of treatment. The blood was collected from the retro-orbital sinus through heparinised capillary in EDTA containing tubes. After centrifugation, plasma sample was separated for triglyceride and total cholesterol (Wieland, O. Methods of Enzymatic analysis. Bergermeyer, H. O., Ed., 1963. 211-214; Trinder, P. Ann. Clin. Biochem. 1969. 6: 24-27). Measurement of plasma triglyceride, total cholesterol and HDL were done using commercial kits (Dr. Reddy's Diagnostic Division, Hyderabad, India).
(§1) 1. Percent reduction in Blood sugar/triglycerides/total cholesterol were calculated according to the formula: […]

C57BL/KsJ-db/db mice = test: Blood sugar and triglyceride lowering in db/db mice; format: in vivo, mouse; settings: 10 mg/kg oral gavage daily for 6 days
Text: Mutation in colonies of laboratory animals and different sensitivities to dietary regimens have made the development of animal models with non-insulin dependent diabetes and hyperlipidemia associated with obesity and insulin resistance possible. Genetic models such as db/db and ob/ob (Diabetes, (1982) 31(1): 1-6) mice and zucker fa/fa rats have been developed by the various laboratories for understanding the pathophysiology of disease and testing the efficacy of new antidiabetic compounds (Diabetes, (1983) 32: 830-838; Annu. Rep. Sankyo Res. Lab. (1994). 46: 1-57). The homozygous animals, C57 BL/KsJ-db/db mice developed by Jackson Laboratory, US, are obese, hyperglycemic, hyperinsulinemic and insulin resistant (J. Clin. Invest., (1990) 85: 962-967), whereas heterozygous are lean and normoglycemic. In db/db model, mouse progressively develops insulinopenia with age, a feature commonly observed in late stages of human type II diabetes when blood sugar levels are insufficiently controlled. The state of pancreas and its course vary according to the models. Since this model resembles that of type II diabetes mellitus, the compounds of the present invention were tested for blood sugar and triglycerides lowering activities.
[…] C57BL/KsJ-db/db mice of 8 to 14 weeks age, having body weight range of 35 to 60 grams, bred at Dr. Reddy's Research Foundation (DRF) animal house, were used in the experiment. The mice were provided with standard feed (National Institute of Nutrition (NIN), Hyderabad, India) and acidified water, ad libitum. The animals having more than 350 mg/dl blood sugar were used for testing. The number of animals in each group was 4.
Test compounds were suspended on 0.25% carboxymethyl cellulose and administered to test group at a dose of 0.001 mg to 30 mg/kg through oral gavage daily for 6 days. The control group received vehicle (dose 10 ml/kg). On 6th day the blood samples were collected one hour after administration of test compounds/vehicle for assessing the biological activity.
The random blood sugar and triglyceride levels were measured by collecting blood (100 μl) through orbital sinus, using heparinised capillary in tubes containing EDTA which was centrifuged to obtain plasma. The plasma glucose and triglyceride levels were measured spectrometrically, by glucose oxidase and glycerol-3-PO4 oxidase/peroxidase enzyme (Dr. Reddy's Lab. Diagnostic Division Kits, Hyderabad, India) methods respectively.
The blood sugar and triglycerides lowering activities of the test compound was calculated according to the formula.
as §1

Row | melting point | Compound | also measured
1 | 148 to 150 °C | CCOC(=O)C(C)(C)Oc1ccc(C(=O)NCCn2c(CC)nc(-c3ccccc3)cc2=O)cc1 [Example 2] | –
2 | 52 to 54 °C | CCCCCCCN(C(=O)Cn1c(CC)nc(-c2ccccc2)cc1=O)c1ccc(OC(C)(CC)C(=O)O)cc1 (stereo not drawn) [Example 36] | PPARγ (hPPARγ1): 1.2; PPARα (hPPARα): 7.5
3 | – | CCCCCCCN(C(=O)Cn1c(CC)nc(-c2ccccc2)cc1=O)c1ccc(SC(CC)C(=O)O)cc1 (stereo not drawn) [Example 49, 2-[4-(2-Ethyl-6-oxo-4-phenyl-1,6-dihydropyrimidin-1-ylmethyl(heptyl)carboxamido)phenylsulfanyl}butanoic acid, arginine salt] | Triglyceride Lowering (%) (Swiss albino mice; 10 mg/kg orally for 6 days): 69%
4 | 195 to 200 °C | CCc1nc(-c2ccccc2)cc(=O)n1CC(=O)Nc1ccc(SC(C(=O)O)C(C)C)cc1 (stereo not drawn) [Example 45] | PPARγ (hPPARγ1): 0.8; PPARα (hPPARα): 7.2
5 | 140 to 143 °C | CCCCCCC(Oc1ccc(NC(=O)Cn2c(CC)nc(-c3ccccc3)cc2=O)cc1)C(=O)OCC (stereo not drawn) [Example 9] | –
6 | 80 to 82 °C | CCCC(Oc1ccc(OCCn2c(CC)nc(-c3ccccc3)cc2=O)cc1)C(=O)OCC (stereo not drawn) [Example 16] | –
7 | 120 °C | CCc1nc(-c2ccccc2)cc(=O)n1CC(=O)Nc1ccc(OC(C)(C)C(=O)O)cc1 [Example 29] | –
8 | 65 to 70 °C | CCc1nc(-c2ccccc2)cc(=O)n1CCNc1ccc(SC(C(=O)O)C(C)C)cc1 (stereo not drawn) [Example 48] | –
9 | 40 °C | CCCC(Nc1ccc(OCCn2c(CC)nc(-c3ccccc3)cc2=O)cc1)C(=O)OCC (stereo not drawn) [Example 24] | –
10 | 68 to 70 °C | CCCCCCCN(C(=O)Cn1c(CC)nc(-c2ccccc2)cc1=O)c1ccc(OC(C)(C)C(=O)O)cc1 [Example 30] | Reduction in Blood Glucose Level (%) (C57BL/KsJ-db/db mice): 34%; Triglyceride Lowering (%) (C57BL/KsJ-db/db mice): 63%
11 | 210 °C | CCc1nc(-c2ccccc2)cc(=O)n1CCNC(=O)c1ccc(OC(C)(C)C(=O)O)cc1 [Example 27] | –
12 | 58 to 60 °C | CCCCCCCN(C(=O)Cn1c(CC)nc(-c2ccccc2)cc1=O)c1ccc(S[C@@H](CC(C)C)C(=O)O)cc1 [Example 43] | Reduction in Blood Glucose Level (%) (C57BL/KsJ-db/db mice): 39%; Triglyceride Lowering (%) (C57BL/KsJ-db/db mice): 43%; PPARγ (hPPARγ1): 2.2; Triglyceride Lowering (%) (Swiss albino mice; 3 mg/kg orally for 6 days): 44%; PPARα (hPPARα): 6.7
13 | 128 to 130 °C | CCOC(=O)C(C)(C)Oc1ccc(NC(=O)Cn2c(CC)nc(-c3ccccc3)cc2=O)cc1 [Example 4] | –
14 | 64 °C | CCc1nc(-c2ccccc2)cc(=O)n1CCOc1ccc(SC(C(=O)O)C(C)C)cc1 (stereo not drawn) [Example 44] | Triglyceride Lowering (%) (Swiss albino mice; 3 mg/kg orally for 6 days): 36%
15 | 164 to 166 °C | CCc1nc(-c2ccccc2)cc(=O)n1CCSc1ccc(OCC(=O)O)cc1 [Example 41] | –
16 | 192 to 194 °C | CCc1nc(-c2ccccc2)cc(=O)n1CCOc1ccc(NC(C)C(=O)O)cc1 (stereo not drawn) [Example 35] | PPARγ (hPPARγ1): 2.2; PPARα (hPPARα): 6.2
17 | – | Cc1cccc(Nc2cc(Cl)nc(SCC(=O)O)n2)c1C [Wy 14643, reference compound] | PPARα (hPPARα): 7
18 | 155 to 157 °C | CCCC(Nc1ccc(OCCn2c(CC)nc(-c3ccccc3)cc2=O)cc1)C(=O)O (stereo not drawn) [Example 39] | –
19 | 52 °C | CCc1nc(-c2ccccc2)cc(=O)n1CCOc1ccc(NC(C)C(=O)O)cc1 (stereo not drawn) [Example 34] | –
20 | 190 to 192 °C | CCCC(Oc1ccc(OCCn2c(CC)nc(-c3ccccc3)cc2=O)cc1)C(=O)O (stereo not drawn) [Example 32] | –
21 | 62 to 64 °C | CCc1nc(-c2ccccc2)cc(=O)n1CCNc1ccc(SC(CC(C)C)C(=O)O)cc1 (stereo not drawn) [Example 47] | –
22 | 88 to 89 °C | CCCCCCCN(c1ccc(OCCn2c(CC)nc(-c3ccccc3)cc2=O)cc1)C(C)C(=O)OCC (stereo not drawn) [Example 25] | –
23 | 159 to 161 °C | CCc1nc(-c2ccccc2)cc(=O)n1CCOc1ccc(OC(C)(CC)C(=O)O)cc1 (stereo not drawn) [Example 33] | –
24 | 118 °C | CCc1nc(-c2ccccc2)cc(=O)n1CCNc1ccc(SC(CC)C(=O)O)cc1 (stereo not drawn) [Example 46] | PPARγ (hPPARγ1): 3.1; PPARα (hPPARα): 6.5
25 | – | CCCCCCCN(C(=O)Cn1c(CC)nc(-c2ccccc2)cc1=O)c1ccc(SC(C(=O)O)C(C)C)cc1 (stereo not drawn) [Example 26, 2-[4-(2-Ethyl-6-oxo-4-phenyl-1,6-dihydropyrimidin-1-ylmethyl(heptyl)carboxamido)phenylsulfanyl}-3-methyl butanoic acid] | Reduction in Blood Glucose Level (%) (C57BL/KsJ-db/db mice): 41%; Triglyceride Lowering (%) (C57BL/KsJ-db/db mice): 45%
26 | 158 to 160 °C | CCc1nc(-c2ccccc2)cc(=O)n1CCOc1ccc(OC(C)(C)C(=O)O)cc1 [Example 31] | –
27 | 48 to 50 °C | CCCCCCCN(C(=O)Cn1c(CC)nc(-c2ccccc2)cc1=O)c1ccc(OC(CCC)C(=O)O)cc1 (stereo not drawn) [Example 37] | –
28 | 168 to 169 °C | CCc1nc(-c2ccccc2)cc(=O)n1CCOc1ccc(NC(C)(C)C(=O)O)cc1 [Example 38] | –
